How the values were obtained:
[1] = clinical; conditions: both, human, in vivo
[2] = cited from earlier work
[3] = after two treatment periods, 26 volunteers, single dose; 7 in total, all light

## CN(C)C(=N)N=C(N)N [Metformin]
[1]; 500 mg
  Cmax: 1390 ± 440 ng/mL
[1]; po
  Tmax: 2.41 h
[2]; in vivo
  Excreted with no changes in the urine: ~90%
[3]
  Number of adverse effects: 3

## CCCCCCCCCCC[C@@H](C[C@@H]1OC(=O)[C@H]1CCCCCC)OC(=O)[C@H](CC(C)C)NC=O [Orlistat]
[2]; in vivo
  Dietetic fat excreted in feces: up to 30%
  Excreted in feces: ~97%
[2]; metformin when fasting, orlistat administered orally
  Oral bioavailability: below 5%

From patent US20150342921A1, “METFORMIN-ORLISTAT COMPOSITIONS” (LANDSTEINER SCIENTIFIC S.A. DE C.V., priority 2012, published 2015)
